Source: patent US5922711A, “8-substituted quinazolines, quinoxalines and benzopyridazines” (Fujisawa Pharmaceutical Co., Ltd., priority 1993, dated 1999)
Where a name gives a salt, the structure may show the parent alone.

Each compound was assayed against T1, Bradykinin receptor (Cavia porcellus, UniProt O70526) (assay: 3H-Bradykinin receptor binding (guinea pig ileum crude membrane)). Conditions: concentration: 1 × 10^-6 M, 3H-Bradykinin 0.06 nM, room temperature, 60 minutes.
T1 construct: The ileum was removed and homogenized in buffer; from tissue; host or cells: guinea pig ileum, crude membrane suspension
T1 sequence (O70526 1-372): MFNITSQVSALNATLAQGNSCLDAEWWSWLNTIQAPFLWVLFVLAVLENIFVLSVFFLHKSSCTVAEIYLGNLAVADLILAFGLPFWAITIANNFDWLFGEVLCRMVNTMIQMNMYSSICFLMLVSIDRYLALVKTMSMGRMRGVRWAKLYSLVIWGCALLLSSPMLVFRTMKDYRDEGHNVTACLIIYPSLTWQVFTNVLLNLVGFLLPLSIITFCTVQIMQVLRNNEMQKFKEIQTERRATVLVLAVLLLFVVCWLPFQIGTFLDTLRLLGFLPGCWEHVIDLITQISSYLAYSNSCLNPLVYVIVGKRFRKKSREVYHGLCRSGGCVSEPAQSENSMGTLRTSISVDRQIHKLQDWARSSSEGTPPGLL
Experimental: ^3 H-Bradykinin receptor binding
(a) Crude ileum membrane preparation
Male Hartly strain guinea pigs were sacrificed by decapitation. The ileum was removed and homogenized in buffer (50 mM trimethylaminoethanesulfonic acid (TES), 1 mM 1,10-phenanthroline pH 6.8). The homogenate was centrifuged (1000×g, 20 minutes) to remove tissue clumps and the supernatant was centrifuges (100,000×g, 60 minutes) to yield a pellet. The pellet was resuspended in buffer (50 mm TES, 1 mM 1,10-phenanthroline, 140 mg/l bacitracin, 1 mM dithiothreiol, 0.1% bovine serum albumin pH 6.8) and homogenized with a glass-teflon homogenizer to yield suspension which was referred to as crude membrane suspension. The obtained membrane suspension was stored at -80° C. until use.
(b) ^3 H-Bradykinin binding to the membrane
The frozen crude membrane suspension was thawed. In binding assays, ^3 H-Bradykinin (0.06 nM) and drug (1×10^-6 M) were incubated with 50 μl of the membrane suspension at room temperature for 60 minutes in a final volume of 250 μl. Separation of receptor-bound from free ^3 H-Bradykinin is achieved by immediate filtration under vacuum and washed three times with 5 ml of ice-cold buffer (50 mM Tris-HCl pH 7.5). Non-specific binding was defined as binding in the presence of 0.1 μM Bradykinin. The radioactivity retained on rinsed filters was determined by a liquid-scintillation counter.

Row | SMILES | inhibition at 1 µM [%]
1 | Cc1ccc2cccc(OCc3c(Cl)ccc(N(C)C(=O)CNC(=O)/C=C/c4ccc(NC(=O)c5ccccn5)cc4)c3Cl)c2n1 [58-(11) (dihydrochloride), 8-[2,6-Dichloro-3-[N-methyl-N-[4-(2-pyridine-carboxamido)cinnamoylglycyl]amino]benzyloxy]-2-methylquinoline] | 99
2 | CCc1cc(Cl)c2cccc(OCc3c(Cl)ccc(N(C)C(=O)CNC(=O)Nc4cccc(C(C)=O)c4)c3Cl)c2n1 [29-(36), 8-[3-[N-[N'-(3-Acetylphenyl)ureidoacetyl]-N-methylamino]-2,6-dichlorobenzyloxy]-4-chloro-2-ethylquinoline hydrochloride] | 98
3 | CCC(=O)Nc1cccc(NC(=O)NCC(=O)N(C)c2ccc(Cl)c(COc3cccc4ccc(C)nc34)c2Cl)c1 [57 (hydrochloride), 8-[2,6-Dichloro-3-[N-methyl-N-[N'-(3-propionamidophenyl)ureidoacetyl]amino]benzyloxy]-2-methylquinoline] | 99
4 | Cc1ccc2cccc(OCc3c(Cl)ccc(N(C)C(=O)CNC(=O)Nc4cccc(N)c4)c3Cl)c2n1 [41-(12), 8-[3-[N-[N'-(3-Aminophenyl)ureidoacetyl]-N-methylaminol-2,6-dichlorobenzyloxy]-2-methylquinolinedihydrochloride] | 95
5 | Cc1ccc2cccc(OCc3c(Cl)ccc(N(C)C(=O)CNC(=O)/C=C/c4ccc(N)cc4)c3Cl)c2n1 [35-(3), 8-[3-[N-(4-Aminocinnamoylglycyl)-N-methylamino]-2,6-dichlorobenzyloxy]-2-methylquinoline] | 99
6 | CCNC(=O)NCC(=O)N(C)c1ccc(Cl)c(COc2cccc3c(OC)cc(C)nc23)c1Cl [41-(64), 8-[2,6-Dichloro-3-[N-(N'-ethylureidoacetyl)-N-methylamino]benzyloxy]-4-methoxy-2-methylquinoline hydrochloride] | 95
7 | Cc1ccc2cccc(OCc3c(Cl)ccc(N(C)C(=O)CNC(=O)/C=C/c4ccc(OCCN(C)C)cc4)c3Cl)c2n1 [41-(53), 8-[2,6-Dichloro-3-[N-[4-[2-(N,N-dimethylamino)ethoxy]cinnamoylglycyl)-N-methylamino]benzloxy]-2-methylquinoline dihydrochloride] | 99
8 | Cc1ccc2cccc(OCc3c(Cl)ccc(N(C)C(=O)CNC(=O)Nc4cccc(C(=O)N(C)c5cccnc5)c4)c3Cl)c2n1 [34-(7), 8-[2,6-Dichloro-3-[N-methyl-N-[N'-[3-[N-methyl-N-(3-pyridyl)carbamoyl]phenyl]ureidoacetyl]amino]benzyloxy]-2-methylquinoline] | 100
